What all share (experiment): biochemical
What all share (design): KINOMEscan scanMAX active site-directed competition binding assay, percent of control, 468 kinases
Details in all cases: competition binding, percent of control

The target in assay [1] is T1, ABL1(F317L)-phosphorylated (Homo sapiens, UniProt P00519, F317L).
T1 construct: phosphorylated
The procedure, abridged:
(§1)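 KINOMEscan active site-directed competition binding assay against 468 human kinases with 100 μM S-carvone. Binding expressed as % of control, with 35% of control as the inhibition threshold.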

Assay [2] has as its target T2, ABL1(T315I)-nonphosphorylated (Homo sapiens, UniProt P00519, T315I).
T2 construct: nonphosphorylated
The procedure, abridged:
as §1

Assay [3] concerns the target T3, ABL1(T315I)-phosphorylated (Homo sapiens, UniProt P00519, T315I).
T3 construct: phosphorylated
The procedure, abridged: as §1

Assay [4] deals with BMPR2 (Homo sapiens, UniProt Q13873). The procedure, abridged: as §1
Sequence of BMPR2 (Q13873 whole entry): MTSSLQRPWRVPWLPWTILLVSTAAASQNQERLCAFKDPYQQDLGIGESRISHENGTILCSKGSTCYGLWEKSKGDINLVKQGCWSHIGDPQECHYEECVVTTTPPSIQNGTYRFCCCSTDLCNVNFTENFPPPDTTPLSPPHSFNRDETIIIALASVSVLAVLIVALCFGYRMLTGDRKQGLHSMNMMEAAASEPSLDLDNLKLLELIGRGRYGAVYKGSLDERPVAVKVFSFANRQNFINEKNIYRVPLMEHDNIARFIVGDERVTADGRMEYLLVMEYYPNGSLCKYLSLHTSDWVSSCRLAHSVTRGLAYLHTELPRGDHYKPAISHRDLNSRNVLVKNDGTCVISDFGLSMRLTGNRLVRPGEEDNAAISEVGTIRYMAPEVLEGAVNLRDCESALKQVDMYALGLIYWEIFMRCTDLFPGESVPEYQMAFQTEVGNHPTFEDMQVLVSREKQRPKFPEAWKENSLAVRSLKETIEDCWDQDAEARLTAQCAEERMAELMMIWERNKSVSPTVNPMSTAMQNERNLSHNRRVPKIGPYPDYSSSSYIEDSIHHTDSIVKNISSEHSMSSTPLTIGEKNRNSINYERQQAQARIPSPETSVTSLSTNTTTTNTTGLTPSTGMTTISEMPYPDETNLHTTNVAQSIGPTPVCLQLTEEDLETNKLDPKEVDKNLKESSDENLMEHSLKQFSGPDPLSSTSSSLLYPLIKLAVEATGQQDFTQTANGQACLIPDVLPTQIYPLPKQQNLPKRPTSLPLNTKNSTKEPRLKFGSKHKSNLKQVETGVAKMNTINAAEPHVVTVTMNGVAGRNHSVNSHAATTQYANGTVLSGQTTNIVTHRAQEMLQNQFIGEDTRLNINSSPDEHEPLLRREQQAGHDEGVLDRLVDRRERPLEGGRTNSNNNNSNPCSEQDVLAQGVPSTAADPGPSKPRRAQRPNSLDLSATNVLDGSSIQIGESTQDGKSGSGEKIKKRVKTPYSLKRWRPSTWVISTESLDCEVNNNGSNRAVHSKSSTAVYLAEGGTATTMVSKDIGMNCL
Assay [5] concerns the target T4, BRK (Homo sapiens, UniProt Q13882).
T4 construct: gene PTK6
The procedure, abridged:
as §1

The target of assay [6] is T5, CDC2L2 (Homo sapiens, UniProt Q9UQ88).
T5 construct: gene CDK11A
T5 sequence (Q9UQ88 whole entry): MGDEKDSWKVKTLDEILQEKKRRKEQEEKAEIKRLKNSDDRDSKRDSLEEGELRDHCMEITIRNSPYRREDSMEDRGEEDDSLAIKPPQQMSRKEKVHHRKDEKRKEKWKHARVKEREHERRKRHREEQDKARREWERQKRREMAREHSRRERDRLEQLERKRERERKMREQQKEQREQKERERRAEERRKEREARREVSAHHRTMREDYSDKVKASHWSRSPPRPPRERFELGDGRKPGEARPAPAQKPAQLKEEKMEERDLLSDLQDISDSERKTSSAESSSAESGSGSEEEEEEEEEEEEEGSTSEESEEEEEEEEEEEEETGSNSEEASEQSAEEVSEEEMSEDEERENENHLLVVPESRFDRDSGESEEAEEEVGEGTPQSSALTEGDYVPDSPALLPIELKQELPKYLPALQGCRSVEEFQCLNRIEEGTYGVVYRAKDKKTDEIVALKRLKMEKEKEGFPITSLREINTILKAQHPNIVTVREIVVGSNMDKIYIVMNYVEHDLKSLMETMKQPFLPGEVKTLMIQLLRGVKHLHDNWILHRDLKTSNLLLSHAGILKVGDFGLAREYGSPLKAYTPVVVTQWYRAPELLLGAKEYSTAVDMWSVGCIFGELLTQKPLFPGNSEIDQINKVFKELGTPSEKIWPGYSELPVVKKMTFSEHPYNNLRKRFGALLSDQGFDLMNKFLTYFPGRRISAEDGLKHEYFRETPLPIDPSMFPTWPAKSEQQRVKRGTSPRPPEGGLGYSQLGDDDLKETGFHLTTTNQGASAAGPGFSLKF
The method in brief:
as §1

Assay [7] addresses CDK5 (Homo sapiens, UniProt Q00535). The method in brief:
as §1

The target of assay [8] is CSK (Homo sapiens, UniProt P41240). The method in brief:
as §1

The target in assay [9] is DAPK3 (Homo sapiens, UniProt O43293). The procedure, abridged:
as §1

Assay [10] has as its target DDR1 (Homo sapiens, UniProt Q08345). The procedure, abridged:
as §1

The target in assay [11] is ERBB3 (Homo sapiens, UniProt P21860). The procedure, abridged:
as §1

In assay [12] the target is FLT4 (Homo sapiens, UniProt P35916). The procedure, abridged:
as §1

For assay [13], the target named is T6, JAK1(JH2domain-pseudokinase) (Homo sapiens, UniProt P23458).
T6 construct: JH2domain-pseudokinase
The procedure, abridged:
as §1

For assay [14], the target named is LYN (Homo sapiens, UniProt P07948). The procedure, abridged:
as §1

In assay [15] the target is T7, MKK7 (Homo sapiens, UniProt O14733).
T7 construct: gene MAP2K7
The procedure, abridged:
as §1

Assay [16] has as its target MYLK2 (Homo sapiens, UniProt Q9H1R3). The method in brief:
as §1

Assay [17] addresses PAK1 (Homo sapiens, UniProt Q13153). The method in brief:
as §1

Assay [18] deals with PAK4 (Homo sapiens, UniProt O96013). The method in brief:
as §1

The target of assay [19] is PIK3CD (Homo sapiens, UniProt O00329). The method in brief:
as §1

Assay [20] deals with PIP5K1A (Homo sapiens, UniProt Q99755). The procedure, abridged:
as §1

Assay [21] has as its target TAOK1 (Homo sapiens, UniProt Q7L7X3). The procedure, abridged: as §1
Assay [22] deals with TYRO3 (Homo sapiens, UniProt Q06418). The procedure, abridged:
as §1

The values below come from paper PMC10174618, “Monoterpenoid aryl hydrocarbon receptor allosteric antagonists protect against ultraviolet skin damage in female mice” (Nature Communications, 2023).

Sequence of TAOK1 (Q7L7X3 whole entry): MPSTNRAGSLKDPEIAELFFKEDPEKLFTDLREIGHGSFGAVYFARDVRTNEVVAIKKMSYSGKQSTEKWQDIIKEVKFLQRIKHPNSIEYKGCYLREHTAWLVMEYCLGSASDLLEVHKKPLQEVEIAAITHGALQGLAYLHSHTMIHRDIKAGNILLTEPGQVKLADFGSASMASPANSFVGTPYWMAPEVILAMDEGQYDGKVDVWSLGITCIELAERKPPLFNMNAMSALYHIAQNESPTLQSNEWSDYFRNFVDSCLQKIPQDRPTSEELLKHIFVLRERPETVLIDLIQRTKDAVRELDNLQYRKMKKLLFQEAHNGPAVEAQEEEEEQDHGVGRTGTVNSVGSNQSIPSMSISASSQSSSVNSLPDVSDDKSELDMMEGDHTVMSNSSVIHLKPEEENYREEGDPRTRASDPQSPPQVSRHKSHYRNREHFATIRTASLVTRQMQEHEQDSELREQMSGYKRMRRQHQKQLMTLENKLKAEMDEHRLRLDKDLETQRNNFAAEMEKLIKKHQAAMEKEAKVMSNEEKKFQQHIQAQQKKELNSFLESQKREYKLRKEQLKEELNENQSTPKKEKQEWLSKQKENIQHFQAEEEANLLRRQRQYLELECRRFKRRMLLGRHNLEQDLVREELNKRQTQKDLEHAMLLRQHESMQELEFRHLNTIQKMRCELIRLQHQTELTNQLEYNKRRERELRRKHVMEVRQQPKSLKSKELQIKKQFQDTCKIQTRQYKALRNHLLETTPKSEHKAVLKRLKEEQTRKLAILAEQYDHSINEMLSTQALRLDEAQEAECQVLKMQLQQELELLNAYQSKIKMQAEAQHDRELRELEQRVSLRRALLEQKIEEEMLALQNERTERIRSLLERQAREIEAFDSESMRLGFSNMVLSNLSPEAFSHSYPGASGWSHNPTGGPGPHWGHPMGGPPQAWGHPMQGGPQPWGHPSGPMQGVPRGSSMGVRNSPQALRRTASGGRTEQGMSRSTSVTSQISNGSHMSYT
Sequence of DDR1 (Q08345 whole entry): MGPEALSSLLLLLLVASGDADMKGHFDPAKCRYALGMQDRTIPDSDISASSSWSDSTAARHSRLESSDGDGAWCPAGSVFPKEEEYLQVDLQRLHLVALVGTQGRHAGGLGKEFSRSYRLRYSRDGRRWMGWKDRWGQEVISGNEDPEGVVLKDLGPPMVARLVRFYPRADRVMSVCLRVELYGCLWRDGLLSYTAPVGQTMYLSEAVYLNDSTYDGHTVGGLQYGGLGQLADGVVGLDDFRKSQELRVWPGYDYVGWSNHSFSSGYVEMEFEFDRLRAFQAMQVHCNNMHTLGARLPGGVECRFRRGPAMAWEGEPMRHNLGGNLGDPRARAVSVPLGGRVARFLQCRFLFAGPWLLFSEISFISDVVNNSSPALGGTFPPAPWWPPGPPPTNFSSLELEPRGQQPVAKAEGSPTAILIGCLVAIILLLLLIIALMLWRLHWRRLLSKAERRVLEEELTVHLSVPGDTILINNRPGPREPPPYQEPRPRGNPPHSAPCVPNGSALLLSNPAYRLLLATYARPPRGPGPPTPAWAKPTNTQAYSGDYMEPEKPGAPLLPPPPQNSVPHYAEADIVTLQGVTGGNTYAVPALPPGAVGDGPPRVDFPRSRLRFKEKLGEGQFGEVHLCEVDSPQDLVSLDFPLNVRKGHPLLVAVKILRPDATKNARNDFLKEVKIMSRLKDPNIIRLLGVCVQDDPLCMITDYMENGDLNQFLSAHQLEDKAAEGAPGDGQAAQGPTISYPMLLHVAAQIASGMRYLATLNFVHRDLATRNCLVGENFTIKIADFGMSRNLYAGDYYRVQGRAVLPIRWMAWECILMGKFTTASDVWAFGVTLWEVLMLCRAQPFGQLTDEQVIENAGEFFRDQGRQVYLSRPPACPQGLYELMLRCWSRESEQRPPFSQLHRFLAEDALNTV
Sequence of TYRO3 (Q06418 whole entry): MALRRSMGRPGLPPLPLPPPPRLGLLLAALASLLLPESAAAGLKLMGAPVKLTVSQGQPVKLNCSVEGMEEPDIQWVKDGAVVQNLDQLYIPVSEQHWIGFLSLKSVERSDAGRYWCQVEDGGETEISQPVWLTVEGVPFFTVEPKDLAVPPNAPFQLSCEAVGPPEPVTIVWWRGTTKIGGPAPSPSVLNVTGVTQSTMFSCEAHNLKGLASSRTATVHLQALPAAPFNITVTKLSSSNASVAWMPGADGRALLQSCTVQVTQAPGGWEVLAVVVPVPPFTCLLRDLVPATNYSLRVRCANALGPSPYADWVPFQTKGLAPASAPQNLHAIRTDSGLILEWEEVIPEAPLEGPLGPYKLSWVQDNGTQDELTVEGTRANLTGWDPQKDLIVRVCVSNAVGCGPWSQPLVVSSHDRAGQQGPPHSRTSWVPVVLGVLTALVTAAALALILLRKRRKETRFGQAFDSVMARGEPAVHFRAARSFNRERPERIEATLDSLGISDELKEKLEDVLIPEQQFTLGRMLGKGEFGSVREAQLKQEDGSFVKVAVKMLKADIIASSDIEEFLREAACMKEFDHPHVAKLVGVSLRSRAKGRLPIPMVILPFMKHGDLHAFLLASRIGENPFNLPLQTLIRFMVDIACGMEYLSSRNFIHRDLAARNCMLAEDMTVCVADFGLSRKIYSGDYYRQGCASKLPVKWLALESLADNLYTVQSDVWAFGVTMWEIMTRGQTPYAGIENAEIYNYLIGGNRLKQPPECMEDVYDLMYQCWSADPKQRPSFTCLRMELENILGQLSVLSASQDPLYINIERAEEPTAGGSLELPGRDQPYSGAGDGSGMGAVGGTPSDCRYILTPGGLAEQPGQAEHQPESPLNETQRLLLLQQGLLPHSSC
Sequence of CSK (P41240 whole entry): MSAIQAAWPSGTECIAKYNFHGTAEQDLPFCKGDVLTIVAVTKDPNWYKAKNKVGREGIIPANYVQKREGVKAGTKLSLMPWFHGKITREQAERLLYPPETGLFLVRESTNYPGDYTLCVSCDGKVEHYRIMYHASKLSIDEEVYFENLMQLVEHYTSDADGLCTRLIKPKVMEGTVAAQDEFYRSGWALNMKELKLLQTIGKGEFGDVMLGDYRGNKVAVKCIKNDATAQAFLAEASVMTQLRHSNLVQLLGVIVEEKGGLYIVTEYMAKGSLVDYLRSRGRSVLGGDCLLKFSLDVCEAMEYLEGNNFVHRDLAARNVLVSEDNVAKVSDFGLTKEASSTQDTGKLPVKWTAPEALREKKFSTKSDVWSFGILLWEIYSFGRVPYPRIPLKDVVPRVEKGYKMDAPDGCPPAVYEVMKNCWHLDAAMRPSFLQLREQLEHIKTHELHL

For `C=C(C)[C@H]1CC=C(C)C(=O)C1` [S-carvone], the remaining binding at 100 µM in assay [1] amounted to 93%; in assay [2], 78%; in [3] it was 88%; in [4], 79%; in assay [5] it was 86%; in [6] it was 82%. The remaining binding at 100 µM came out at 61% in assay [7]; 88% in assay [8]; 84% in assay [9]; 90% in [10]; 78% in assay [11]; 90% in [12]. The remaining binding at 100 µM in [13] amounted to 58%; in assay [14] it was 72%; in [15] it was 67%; in assay [16], 100%; in assay [17], 66%; in [18], 74%. The remaining binding at 100 µM in assay [19] is 87%; in assay [20], 98%; in [21] it was 82%; in [22], 87%.
